Data taken from patent US6086849A, “Technetium-99m labeled peptides for imaging” (Diatide, Inc., priority 1995, dated 2000).
Values belong to the substance of their own block, whether it stands above or below them.

Key:
[1] = system: deep vein thrombus (femoral vein, embolization coil); experiment: In vivo imaging of deep vein thrombosis in a canine model; set-up: species or system dog
Text: Mongrel dogs (25-35 lb., fasted overnight) were sedated with a combination of ketamine and aceprozamine intramuscularly and then anesthetized with sodium pentobarbital intravenously. An 18-gauge angiocath was inserted in the distal half of the right femoral vein and an 8 mm Dacron®-entwinedstainless steel embolization coil (Cook Co., Bloomington Ind.) was placed in the femoral vein at approximately mid-femur in each animal. The catheter was removed, the wound sutured and the placement of the coil documented by X-ray. The animals were then allowed to recover overnight.
One day following coil placement, each animal was re-anesthetized, intravenous saline drips placed in each foreleg and a urinary bladder catheter inserted to collect urine. The animal was placed supine under a gamma camera which was equipped with a low-energy, all purpose collimator and photopeaked for Tc-99m. Images were acquired on a NucLear Mac computer system.
Tc-99m labeled P357 [(CH2 CO--YD.Apc.GDCGGCAcm GCAcm GGC.amide)2 -[BAT-BS]] [185-370 MBq (5-10 mCi) Tc-99m and 0.2-0.4 mg P357] was injected into one foreleg intravenous line at its point of insertion. The second line was maintained for blood collection. Anterior images over the legs were acquired for 500,000 counts or 20 min (whichever was shorter), at approximately 10-20 min, and at approximately 1, 2, 3 and 4 h post-injection. Following the collection of the final image, each animal was deeply anesthetized with pentobarbital. Two blood samples were collected on a cardiac puncture using a heparinized syringe followed by a euthanazing dose of saturated potassium chloride solution administered by intercardiac or bolus intravenous injection. The femoral vein containing the thrombus and samples of thigh muscle were then carefully dissected out. The thrombus was then dissected free of the vessel and placed in a pre-weighed test tube. The thrombus samples were then weighed and counted in a gamma well counter in the Tc-99m channel. Known fractions of the injected doses were counted as well.
Fresh thrombus weight, percent injected dose (%ID)/g in the thrombus and blood obtained just prior to euthanasia and thrombus/blood and thrombus/muscle ratios determined. Thrombus/background ratios were determined by analysis of the counts/pixel measured in regions-of-interest(ROI) drawn over the thrombus and adjacent muscle from computer-stored images.

[2] = system: atherosclerotic plaque; type: in vivo, New Zealand White rabbit
Experimental: Twenty-two New Zealand White (NZW) rabbits of both sexes and weighing 2-3 kg were divided into two groups. The control group consisted of 6 rabbits that were housed and fed commercial rabbit chow (Purina). Sixteen rabbits, the HC group, were fed a standardized, cholesterol-rich diet (rabbit chow mixed to a 1% w/w concentration of cholesterol) from seven weeks until 28 weeks of age. All animals were given water ad libitum.
Tc-99m labeled P215 ([BAT]RALVDTLKFVTQAEGAK.amide) was prepared as described above. Approximately 250-400 μg of peptide was labeled with 140-160 mCi of Tc-99m and prepared in unit doses of 7-8 mCi (12.5-20.0 μg/rabbit; 6-7 μg/kg) in 0.2 mL volume doses. Adult rabbits were dosed with Tc-99m labeled peptide intravenously in a lateral ear vein by slow bolus infusion (approximately 0.1 mL/min). A gamma camera fitted with a pin-hole collimator (5 mm aperture) and energy window set for Tc-99m and programmed to accumulate 500,000 counts or scan for a desired time. Shortly before imaging, animals were anesthetized with a mixture of ketamine and xylazine (5:1, 1 mL/kg intramuscularly).
Gamma camera images were collected at 40-45° just above the heart (left anterior oblique [LAO] view) to delineate the aortic arch and view the descending aorta. Images were acquired at 1 and 2 h and occasionally at 3 and 5 h after injection. Supplementary anesthesia was injected as needed prior to each image collection.
At 2.5 h (after a 2 h scan), animals were sacrificed with an intravenous dose of sodium pentobarbital. Upon necropsy, the aorta was removed and branching vessels dissected free from the aortic valve to the mid-abdominal region. Using a parallel hole collimator, the aorta was imaged ex corpora. Next, the aortae were opened longitudinally and stained with Sudan IV, thereby turning atherosclerotic plaque a deep red brick color. Lipid-free and uninjured aortic endothelium retains its normal, glistening white-pink appearance under these conditions.

[3] = Tc-99m labeled, i.v., tissues after final image (about 4 h), average ± SD

Substance: (CH2 CO--YD.Apc.GDCGGCAcm GCAcm GGC.amide)2 -[BAT-BS] [Compound P357]
% ID/g Thrombus ([1]; Tc-99m labeled, i.v., thrombus dissected after final image (about 4 h), average ± SD): 0.016 ± 0.005 % ID/g
Thrombus/Blood ratio [1, 3]: 5.6 ± 1.4
Thrombus/Muscle ratio [1, 3]: 17 ± 4.7
Thrombus/Background ratio ([1]; counts/pixel in ROI over thrombus and adjacent muscle from images, Tc-99m labeled, i.v., n = 1): 2.3
Time to clearly established localization of thrombus ([1]; post-injection): ≤ 1 h
Time of first indications of labeled peptide uptake in images ([1]; post-injection, anterior view over hind legs of one dog (FIG. 4)): 23 min
Time to unequivocal localization in images ([1]; post-injection, one dog (FIG. 4), persisted until the end of the imaging period): ≤ 71 min
Persistence of thrombus localization ([1]; post-injection, with increasing contrast and focal definition): ~4 h

Principal clearance pathway ([2]; rabbit, in vivo): hepatobiliary system
Systemic clearance ([2]; rabbit, in vivo, iv): rapid systemic clearance
Substance: [BAT]RALVDTLKFVTQAEGAK.amide [Compound P215]
Radioactivity accumulation in HC aortae imaged ex corpora ([2]; HC-fed rabbits, aorta removed at 2.5 h): greatest deposition in the region of the aortic arch
Correlation of in vivo and ex corpora images with Sudan IV deposition patterns ([2]; HC-treated rabbit aortae): Positive correlations
Imaging of atherosclerotic plaque (uptake) ([2]; Tc-99m labeled): high uptake
Uptake in normal aortic tissue ([2]; control (plaque-free) aortae): minimal uptake
